“Also recorded” adds a separate entry of the source. Read-outs that look alike come from different tables or passages of the source. Where a SMILES comes first, the peptide text is derived from it. Bridges are numbered along the chain shown (N, C = ends).

For experiment [1], the system named is BzATP-induced release of IL-1β from human monocytic THP-1 cells. The experiment in a line: BzATP-induced IL-1β release by LPS-primed human monocytic THP-1 cells (ELISA). It counts as cell-based. To be noted: for Effect on the inhibitory effect of ACh on BzATP-induced IL-1β release: LPS 1 μg/mL 5 h, BzATP 100 μM 40 min; for Effect on BzATP-induced IL-1β release in the absence of ACh: LPS-primed THP-1. The procedure:
THP-1 cells were primed with lipopolysaccharide (LPS; 1 μg/mL, 5 h) followed by stimulation with the P2X7 receptor agonist BzATP (2′/3′-O-(4-benzoylbenzoyl)-adenosine-5′-triphosphate, tri(triethylammonium) salt) for 40 min to induce IL-1β release, which was quantified by ELISA.
Experiments on human monocytic THP-1 cells (German Collection of Microorganisms and Cell Cultures, Braunschweig, Germany, Cat# ACC16) were performed as described before. […] The supernatants were collected and stored for later IL-1β measurements using the Human IL-1β/IL-1F2 DuoSet ELISA from R&D Systems (Minneapolis MN, USA, Cat# DY201). Cell viability was assessed by measuring lactate dehydrogenase (LDH) activity in the supernatants using the CytoTox 96 Non-Radioactive Cytotoxicity Assay (Promega, Madison WI, USA; Cat# G1780). LDH activities were expressed as a percentage of total LDH activity from lysed control cells. Data on the BzATP-induced IL-1β release and LDH activity were analyzed using SPSS (Version 29.0.2.0, IBM, Armonk, NY, United States) and visualized using Inkscape version 0.48.5 r10040 (Free and Open Source Software licensed under the GPL). The data were analyzed first by the Friedman test.

A further experiment concerns chick α7 nAChRs. Conditions: cited from earlier work.
Another experiment concerns the target α7-nAChR. Conditions: read-out: α7-nAChR affinity (Ki); ref: previously reported, citation number not given; cited from earlier work.
The subject of the next experiment is hα7. To be noted: ref: more recent studies, citation number not given, cited from earlier work.
Experiment [2] deals with T1, hα9α10 nAChRs (Homo sapiens, UniProt Q9GZZ6+Q9UGM1).
T1 construct: host or cells: Xenopus laevis oocytes, cRNA-injected (α9:α10 cRNA ratio 1:1)
The experiment in a line: Two-electrode voltage clamp, inhibition of ACh-evoked currents at hα9α10 nAChRs expressed in Xenopus laevis oocytes. Format: cell-based. To be noted: for n H (Hill coefficient of inhibition) / IC50: 6 μM ACh; for IC50: 5 min preincubation with compound, holding potential −80 mV. The source says: (§1) The protocols were approved by the Animal Ethics Committees of the Victor Chang Cardiac Research Institute, Sydney, and the University of Wollongong (project number AE 20/17). Human α9 and α10 nAChR clones were obtained from OriGene (Rockville, MD, USA) and subcloned into the pT7TS vector. The human α7 nAChR clone, in the plasmid pMXT, was kindly provided by J. Lindstrom (University of Pennsylvania, USA). Constructs of human nAChR subunits were linearized and used for in vitro cRNA transcription with the SP6/T7 mMessage mMachine transcription kit (AMBION, Forster City, CA, USA).
(§2) The cRNA concentration was verified spectrophotometrically and by gel electrophoresis.
(§3) Electrophysiological recordings were conducted 2–5 days after cRNA injection using a HiClamp automated two-electrode voltage-clamp screening system (MultiChannel Systems GmbH, Reutlingen, Germany) with a holding potential of –80 mV. To prevent the activation of endogenous Ca^2+-activated chloride channels due to the Ca^2+ permeability of α9-containing nAChRs, oocytes were preincubated with 100 μM BAPTA-AM for approximately 3 h.
For concentration–response experiments assessing modulation of ACh-evoked responses, oocytes were initially superfused with ND96 or ND115 solution, depending on the receptor subtype. […] After ACh application, a 3 min washout was performed. Oocytes were then incubated with the test compound for 5 min, followed by coapplication of the compound and ACh in a continuously flowing bath solution. All compounds were prepared in ND96 or ND115 with 0.1% bovine serum albumin (BSA).

For experiment [3], the target named is T1, hα9α10 nAChRs. The experiment in a line: Two-electrode voltage clamp, compound-evoked currents (compound applied alone) at hα9α10 nAChRs in Xenopus laevis oocytes. Format: cell-based. Conditions: for EC50: compound applied alone (300 pM to 30 μM), normalized to response at highest concentration.
Text: as §1, §2, §3
Concentration–response experiments assessing compound-evoked currents were performed by initially superfusing α9-containing nAChRs oocytes with ND115 solution. Test compounds were then applied at concentrations ranging from 300 pM to 30 μM, followed by a 3 min washout period.

Experiment [4] addresses T2, hα9 nAChRs (Homo sapiens, UniProt Q9UGM1).
T2 construct: host or cells: Xenopus laevis oocytes, cRNA-injected
The experiment in a line: Two-electrode voltage clamp, inhibition of ACh-evoked currents at hα9 nAChRs in Xenopus laevis oocytes. Format: cell-based. To be noted: for n H (Hill coefficient of inhibition) / IC50: 50 μM ACh; for IC50: 5 min preincubation.

In experiment [5] the target is T2, hα9 nAChRs. The experiment in a line: Two-electrode voltage clamp, compound-evoked currents at hα9 nAChRs in Xenopus laevis oocytes. It counts as cell-based.
Experiment [6] has as its target T3, hα7 nAChRs (Homo sapiens, UniProt P36544).
T3 construct: host or cells: Xenopus laevis oocytes, cRNA-injected (10 ng)
The experiment can be described thus: Two-electrode voltage clamp, inhibition of ACh-evoked currents at hα7 nAChRs in Xenopus laevis oocytes. It counts as cell-based. Conditions: for n H (Hill coefficient of inhibition) / IC50: 100 μM ACh; for IC50: 5 min preincubation.

The target in experiment [7] is T3, hα7 nAChRs. The experiment in a line: Two-electrode voltage clamp, compound-evoked currents at hα7 nAChRs in Xenopus laevis oocytes. Conditions: compound applied alone. Format: cell-based. The procedure: Additionally, five compounds of the series were tested on the homomeric hα7 and hα9 nAChRs.
as §1, §2, §3

Experiment [8] has as its target T1, hα9α10 nAChRs. The experiment can be described thus: cell-based.

T2 sequence (Q9UGM1 26-479 limits assumed): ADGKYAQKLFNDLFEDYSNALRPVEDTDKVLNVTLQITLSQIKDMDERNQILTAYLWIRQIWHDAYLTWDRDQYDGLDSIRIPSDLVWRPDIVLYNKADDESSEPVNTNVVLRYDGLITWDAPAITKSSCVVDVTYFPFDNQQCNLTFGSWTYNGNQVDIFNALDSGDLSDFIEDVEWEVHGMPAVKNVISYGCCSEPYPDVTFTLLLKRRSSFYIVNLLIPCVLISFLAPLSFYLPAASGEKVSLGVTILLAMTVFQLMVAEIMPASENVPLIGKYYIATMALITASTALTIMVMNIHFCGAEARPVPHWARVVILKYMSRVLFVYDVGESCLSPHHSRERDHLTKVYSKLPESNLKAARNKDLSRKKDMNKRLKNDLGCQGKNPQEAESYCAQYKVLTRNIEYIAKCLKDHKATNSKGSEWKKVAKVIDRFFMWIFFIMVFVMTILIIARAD
T1 sequence (Q9UGM1 26-479 limits assumed): as above
T1 sequence (Q9GZZ6 25-450): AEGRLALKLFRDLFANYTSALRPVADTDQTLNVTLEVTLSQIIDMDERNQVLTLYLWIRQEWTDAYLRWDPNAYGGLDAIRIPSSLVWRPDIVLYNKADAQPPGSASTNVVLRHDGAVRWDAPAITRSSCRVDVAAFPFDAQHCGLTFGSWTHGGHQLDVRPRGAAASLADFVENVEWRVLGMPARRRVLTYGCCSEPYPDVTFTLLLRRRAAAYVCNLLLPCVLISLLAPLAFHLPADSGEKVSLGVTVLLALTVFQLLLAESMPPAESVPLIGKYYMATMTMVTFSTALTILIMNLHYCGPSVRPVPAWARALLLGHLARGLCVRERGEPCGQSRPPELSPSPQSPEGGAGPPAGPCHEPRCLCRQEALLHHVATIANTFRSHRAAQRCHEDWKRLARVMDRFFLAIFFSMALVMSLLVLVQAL
T3 sequence (P36544 23-502): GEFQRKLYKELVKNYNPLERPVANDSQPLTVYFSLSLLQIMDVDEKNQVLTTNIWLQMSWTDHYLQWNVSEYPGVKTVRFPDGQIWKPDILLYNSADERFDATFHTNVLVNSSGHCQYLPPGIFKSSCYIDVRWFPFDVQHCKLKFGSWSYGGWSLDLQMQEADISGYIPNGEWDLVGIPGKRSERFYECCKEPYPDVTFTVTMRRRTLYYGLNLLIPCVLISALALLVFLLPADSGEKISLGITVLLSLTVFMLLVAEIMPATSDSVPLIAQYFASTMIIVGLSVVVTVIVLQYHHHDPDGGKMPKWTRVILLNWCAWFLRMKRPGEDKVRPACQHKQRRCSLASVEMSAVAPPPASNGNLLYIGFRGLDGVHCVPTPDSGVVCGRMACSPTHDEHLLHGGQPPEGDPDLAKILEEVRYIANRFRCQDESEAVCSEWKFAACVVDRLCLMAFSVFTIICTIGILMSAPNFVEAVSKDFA

On to `CC[N+](CC)(CC)CCOc1ccc(/C=C/c2ccccc2)cc1` [Compound 1, 2-triethylammonium ethyl ether of 4-stilbenol], for which the “Effect on the inhibitory effect of ACh on BzATP-induced IL-1β release” value (“Effect on the inhibitory effect of ACh” below) in experiment [1] (compound 100 pM + ACh 10 μM) and in experiment [1] (compound 100 nM + ACh 10 μM) was “efficiently antagonized the inhibitory effect of ACh” each time. In addition, the “Effect on BzATP-induced IL-1β release in the absence of ACh” value (“Effect on BzATP-induced IL-1β release” below) in [1] (compound 100 pM) is “only slightly reduced”; in [1] (compound 100 nM), “only slightly reduced; also recorded: failed to reduce IL-1β release”. Also, the IC50 with chick α7 nAChRs (chick α7, 100 μM ACh, ref: citation number not given) was 0.09 to 0.11 µM; in the experiment on hα7 (200 μM ACh) it was 0.041 µM; with hα7 (1 mM ACh), 1.99 µM. Further, the “Currents evoked when applied alone” value in the experiment on chick α7 nAChRs (wild-type chick α7 nAChRs, ref: previous findings, citation number not given) is on record as “did not evoke currents”. Also, the Ki at α7-nAChR is 0.104 µM.

As for `C[N+](C)(CCOc1ccc(OCc2ccccc2)cc1)C1CCCCC1.[I-]` [Compound 21, N-(2-(4-(Benzyloxy)phenoxy)ethyl)-N,N-dimethylcyclohexanaminium Iodide], the “IC50 ratio to Cpd 1” value on hα9α10 nAChRs [2] amounted to 0.6; on hα9 nAChRs [4], 0.9; at hα7 nAChRs [6], 1.0. In addition, the “n H (Hill coefficient of inhibition)” value at hα9α10 nAChRs [2] worked out at 1.7; on hα9 nAChRs [4] it was 1.6; on hα7 nAChRs [6], 1.5. Further, the figures for the IC50 on hα9α10 nAChRs [2], against hα9 nAChRs [4] and against hα7 nAChRs [6] were 0.0391 µM, 0.171 µM and 0.419 µM, respectively. The “EC50 ratio to Cpd 1” value was 0.9 on hα9α10 nAChRs [3] and 1.0 on hα9 nAChRs [5]. The results for the “n H (Hill coefficient of activation)” value on hα9α10 nAChRs [3] (compound applied alone) and on hα9 nAChRs [5] (compound applied alone) were 3.7 and 2.2, respectively. The EC50 at hα9α10 nAChRs [3] (read-out: EC50) was 0.338 µM; on hα9 nAChRs [5] (compound applied alone, read-out: EC50), 0.905 µM; at hα7 nAChRs [7], “No activity”. The “Effect on the inhibitory effect of ACh” value is listed as “efficiently antagonized the inhibitory effect of ACh” in experiment [1] (compound 100 pM + ACh 10 μM) and “mild antagonistic effects” in experiment [1] (compound 100 nM + ACh 10 μM). For the same compound, the “Effect on BzATP-induced IL-1β release” value in experiment [1] (compound 100 pM) is “minor reduction”; in experiment [1] (compound 100 nM) it was “effectively and significantly inhibited”.

For the compound `C[N+](C)(CCOc1ccc(COc2ccccc2)cc1)C1CCCCC1.[I-]` [Compound 22, N,N-Dimethyl-N-(2-(4-(phenoxymethyl)phenoxy)ethyl)cyclohexanaminium Iodide], the “IC50 ratio to Cpd 1” value on hα9α10 nAChRs [2] stood at 0.3; on hα9 nAChRs [4], 0.1; at hα7 nAChRs [6], 0.8. In addition, the “n H (Hill coefficient of inhibition)” value at hα9α10 nAChRs [2] is reported as 1.7; on hα9 nAChRs [4], 1.5; at hα7 nAChRs [6] it was 1.5. Also, the IC50 was 0.016 µM at hα9α10 nAChRs [2], 0.0262 µM against hα9 nAChRs [4] and 0.336 µM at hα7 nAChRs [6]. Also, the figures for the EC50 result on hα9α10 nAChRs [3], on hα9 nAChRs [5] (compound applied alone) and at hα7 nAChRs [7] were “failed to activate; also recorded: lacked agonist activity; also recorded: No activity”, “did not elicit any current; also recorded: lacked agonist activity; also recorded: No activity” and “lacked agonist activity; also recorded: No activity”, respectively. Further, the “Effect on the inhibitory effect of ACh” value in [1] (compound 100 pM + ACh 10 μM) was “efficiently antagonized the inhibitory effect of ACh”; in [1] (compound 100 nM + ACh 10 μM), “mild antagonistic effects”. Moreover, the “Effect on BzATP-induced IL-1β release” value is “minor reduction” in experiment [1] (compound 100 pM); “effectively and significantly inhibited” in experiment [1] (compound 100 nM).

In the case of `CC[C@H](C)[C@@H]1NC(=O)[C@H](CC(=O)O)NC(=O)[C@@H]2CCCN2C(=O)[C@H](CC(N)=O)NC(=O)[C@H](CC(N)=O)NC(=O)[C@H](C(C)C)NC(=O)[C@H](CO)NC(=O)[C@@H]2CSSC[C@H](NC(=O)CN)C(=O)N[C@@H](CSSC[C@@H](C(N)=O)NC1=O)C(=O)N[C@@H](CO)C(=O)N[C@@H](Cc1c[nH]cn1)C(=O)N1CCC[C@H]1C(=O)N[C@@H](C)C(=O)N2` [α-conotoxin Mr1.1] (H-GCCSHPACSVNNPDIC-NH2; disulfide 2-8, 3-16), the “Hill coefficient (n H)” value at hα9α10 nAChRs [8] was 1.3.

Compound `CC[C@H](C)[C@@H]1NC(=O)[C@H](CC(=O)O)NC(=O)[C@@H]2CCCN2C(=O)[C@H](CC(N)=O)NC(=O)[C@H](CC(N)=O)NC(=O)[C@H](C(C)C)NC(=O)[C@H](CO)NC(=O)[C@@H]2CSSC[C@H](NC(=O)CN)C(=O)N[C@@H](CSSC[C@@H](C(N)=O)NC1=O)C(=O)N[C@@H](CO)C(=O)N[C@@H](Cc1cnc[nH]1)C(=O)N1CCC[C@H]1C(=O)N[C@@H](C)C(=O)N2` [α-conotoxin Mr1.1] (H-GCCSHPACSVNNPDIC-NH2; disulfide 2-8, 3-16) returned an IC50 against hα9α10 nAChRs [8] of 0.0829 µM.

Values taken from paper PMC12751000, “Dual Agonist/Antagonist Modulation of α9-Containing Nicotinic Acetylcholine Receptors by 2‑Ammoniumethyl Ethers of Stilbenol and Stilbenol Analogues” (Journal of Medicinal Chemistry, 2025).
